Like-named read-outs stand apart in the source and are kept apart here. Marks after values point to notes of the source that are not given here.
Legend:
breast cancer (MX-1) = assay type: in vivo, female nude mice; conditions: 100 mg/kg ip ×10; for T/C: tumor volume
Protocol: A patch of breast cancer [cancer cells recommended by National Cancer Institute (NCI) of the U.S.A.] (MX-1) measuring approximately 2 x 2 mm in area was transplanted to each of female nude mice five weeks old. To the mice, an aqueous solution of the aforementioned heteropoly acid salt (Compound M) was administered at a dose of 100 mg/kg once a day by intraperitoneal injection for 10 consecutive days on elapse of 17 days following the transplantation of tumor (ip). For 15 days following the stop of the administration, the volumes of tumor in the mice were measured to evaluate the effect of compound. At ip (x 10), significant suppression of hyperplasia appeared around the 4th day and a strong supression of hyperplasia of cancer was maintained even after 25 days following the completion of transplantation. For comparison, mice to which no aqueous solution was administered were similarly tested.

MM-46 breast cancer = assay type: in vivo, female C3H/He mice; conditions: for T/C: tumor weight
Protocol: The heteropoly acid salt (Compound M) mentioned above was dissolved in distilled water to obtain an aqueous solution containing the compound in a concentration of 10 mg/ml. This aqueous solution was administered to female C3H/He mice (five weeks old) to which MM-46 breast cancer had been transplanted, to test the compound for antineoplastic activity. To be more specific, the MM-46 breast cancer was transplanted to the mice in a ratio of 1.0 x 10^5 cells per mouse and the aqueous solution was administered (at a dose of 100 mg and a dose of 200 mg per kg of body weight) intraperitoneally (ip) or orally (po) for 9 consecutive days. After elapse of 14 days following the stop of the administration, the sizes of tumor were measured. For comparison, mice to which no aqueous solution was administered were similarly tested.

[1] = test system: human breast cancer (MX-1); assay type: in vivo, female nude mice; conditions: for T/C: tumor volume
Protocol: A patch of human breast cancer [cancer cells recommended by National Cancer Institute (NCI) of U.S.A.] (MX-1) measuring approximately 2 x 2 mm in area was transplanted to female nude mice 5 weeks old. For 10 days following the 17th day of the transplantation, an aqueous solution containing 1% by weight of the aforementioned isopropylammonium polymolybdate (Compound A) was administered continuously at a dose of 100 mg/kg or 200 mg/kg once per day by intraperitoneal injection (ip). After the stop of the administration, the volume of tumor was measured daily for 15 or 20 days to evaluate the effect of the compound. With either of the dose of 100 mg/kg and the dose of 200 mg/kg, significant suppression of hyperplasia began to appear around the 6th day of administration of ip (x 10). Even after the stop of the administration (25th or 30th day), a distinct suppression of cancerous hyperplasia of about 70% was retained. Generally, by the NCI standard, a ratio of suppression exceeding 50% is rated as effective. […] For comparison, similar mice to which the human cancer was transplanted and the aqueous solution was not administered were tested by following the procedure described above.

Substance: Nas [IMo6O24] • 34H2O [Compound M]
- Average volume of tumor, Average ±SE (breast cancer (MX-1); day 1): 333.2±25.0 mm^3
- Average volume of tumor, Average ±SE (breast cancer (MX-1); day 2): 404.7±16.5 mm^3
- T/C (breast cancer (MX-1); day 2): 90.9%
- Average volume of tumor, Average ±SE (breast cancer (MX-1); day 3): 510.0±38.8 mm^3
- T/C (breast cancer (MX-1); day 3): 88.6%
- Average volume of tumor, Average ±SE (breast cancer (MX-1); day 4): 575.0±14.4 mm^3
- T/C (breast cancer (MX-1); day 4): 85.9* %
- Average volume of tumor, Average ±SE (breast cancer (MX-1); day 5): 555.2±44.7 mm^3
- T/C (breast cancer (MX-1); day 5): 74.7** %
- Average volume of tumor, Average ±SE (breast cancer (MX-1); day 6): 565.5±36.7 mm^3
- T/C (breast cancer (MX-1); day 6): 76.1** %
- Average volume of tumor, Average ±SE (breast cancer (MX-1); day 7): 616.7±20.3 mm^3
- T/C (breast cancer (MX-1); day 7): 64.3 **** %
- Average volume of tumor, Average ±SE (breast cancer (MX-1); day 8): 786.0±40.0 mm^3
- T/C (breast cancer (MX-1); day 8): 75.4*** %
- Average volume of tumor, Average ±SE (breast cancer (MX-1); day 9): 869.0±33.2 mm^3
- T/C (breast cancer (MX-1); day 9): 63.6*** %
- Average volume of tumor, Average ±SE (breast cancer (MX-1); day 10): 957.9±38.1 mm^3
- T/C (breast cancer (MX-1); day 10): 64.8*** %
- Average volume of tumor, Average ±SE (breast cancer (MX-1); day 11): 1092.7±32.4 mm^3
- T/C (breast cancer (MX-1); day 11): 69.5*** %
- Average volume of tumor, Average ±SE (breast cancer (MX-1); day 15): 1540.5±106.6 mm^3
- T/C (breast cancer (MX-1); day 15): 61.7** %
- Average volume of tumor, Average ±SE (breast cancer (MX-1); day 18): 1821.0±127.4 mm^3
- T/C (breast cancer (MX-1); day 18): 61.5*** %
- Average volume of tumor, Average ±SE (breast cancer (MX-1); day 21): 2182.0±148.6 mm^3
- T/C (breast cancer (MX-1); day 21): 64.5*** %
- Average volume of tumor, Average ±SE (breast cancer (MX-1); day 25): 2671.7±154.5 mm^3
- T/C (breast cancer (MX-1); day 25): 73.0** %
- Average weight of tumor 21 days after transplantation ±SE (MM-46 breast cancer; 100 mg/kg/day ip×9): 560±283(6) mg
- Number of tumorless mice /total number of mice (MM-46 breast cancer; 100 mg/kg/day ip×9): 0/6
- T/C (MM-46 breast cancer; 100 mg/kg/day ip×9): 0.277
- Average weight of tumor 21 days after transplantation ±SE (MM-46 breast cancer; 200 mg/kg/day po×9): 572±76(6) mg
- Number of tumorless mice /total number of mice (MM-46 breast cancer; 200 mg/kg/day po×9): 0/7
- T/C (MM-46 breast cancer; 200 mg/kg/day po×9): 0.258

Substance: [NH3C3H7(iso)]s (Mo7O24] • 3H2O [Compound A]
- suppression of cancerous hyperplasia ([1]; 100 mg/kg and 200 mg/kg ip ×10, after the stop of the administration (25th or 30th day)): about 70%
- Volume of tumor ([1]; 100 mg/kg ip ×10, 0 day): 278.3±22.0 mm^3
- Volume of tumor ([1]; 100 mg/kg ip ×10, 1 day): 283.3±50.8 mm^3
- T/C ([1]; 100 mg/kg ip ×10, 1 day): 67.3%
- Volume of tumor ([1]; 100 mg/kg ip ×10, 2 day): 302.3±58.6 mm^3
- T/C ([1]; 100 mg/kg ip ×10, 2 day): 58.6%
- Volume of tumor ([1]; 100 mg/kg ip ×10, 3 day): 324.7±123.5 mm^3
- T/C ([1]; 100 mg/kg ip ×10, 3 day): 60.5%
- Volume of tumor ([1]; 100 mg/kg ip ×10, 4 day): 366.3±121.7 mm^3
- T/C ([1]; 100 mg/kg ip ×10, 4 day): 60.7%
- Volume of tumor ([1]; 100 mg/kg ip ×10, 5 day): 413.7±168.8 mm^3
- T/C ([1]; 100 mg/kg ip ×10, 5 day): 57.8%
- Volume of tumor ([1]; 100 mg/kg ip ×10, 6 day): 366.0±121.3 mm^3
- T/C ([1]; 100 mg/kg ip ×10, 6 day): 44.2** %
- Volume of tumor ([1]; 100 mg/kg ip ×10, 7 day): 302.7±173.5 mm^3
- T/C ([1]; 100 mg/kg ip ×10, 7 day): 33.3** %
- Volume of tumor ([1]; 100 mg/kg ip ×10, 9 day): 397.3±226.9 mm^3
- T/C ([1]; 100 mg/kg ip ×10, 9 day): 36.9* %
- Volume of tumor ([1]; 100 mg/kg ip ×10, 10 day): 406.7±202.6 mm^3
- T/C ([1]; 100 mg/kg ip ×10, 10 day): 29.7*** %
- Volume of tumor ([1]; 100 mg/kg ip ×10, 15 day): 734.0±524.0 mm^3
- T/C ([1]; 100 mg/kg ip ×10, 15 day): 33.3* %
- Volume of tumor ([1]; 100 mg/kg ip ×10, 19 day): 994.0±613.0 mm^3
- T/C ([1]; 100 mg/kg ip ×10, 19 day): 37.4* %
- Volume of tumor ([1]; 100 mg/kg ip ×10, 21 day): 1039.0±646.0 mm^3
- T/C ([1]; 100 mg/kg ip ×10, 21 day): 30.0* %
- Volume of tumor ([1]; 100 mg/kg ip ×10, 25 day): 1301.0±912.3 mm^3
- T/C ([1]; 100 mg/kg ip ×10, 25 day): 32.6* %
- Volume of tumor ([1]; 200 mg/kg ip ×10, 1 day): 371.8±10.8 mm^3
- Volume of tumor ([1]; 200 mg/kg ip ×10, 2 day): 439.8±56.9 mm^3
- Volume of tumor ([1]; 200 mg/kg ip ×10, 4 day): 518.8±54.7 mm^3
- T/C ([1]; 200 mg/kg ip ×10, 4 day): 62.1* %
- Volume of tumor ([1]; 200 mg/kg ip ×10, 5 day): 610.5±15.2 mm^3
- T/C ([1]; 200 mg/kg ip ×10, 5 day): 55.9* %
- Volume of tumor ([1]; 200 mg/kg ip ×10, 6 day): 656.8±25.7 mm^3
- T/C ([1]; 200 mg/kg ip ×10, 6 day): 62.9**** %
- Volume of tumor ([1]; 200 mg/kg ip ×10, 7 day): 759.3±84.3 mm^3
- T/C ([1]; 200 mg/kg ip ×10, 7 day): 54.5** %
- Volume of tumor ([1]; 200 mg/kg ip ×10, 8 day): 852.0±126.7 mm^3
- T/C ([1]; 200 mg/kg ip ×10, 8 day): 58.1* %
- Volume of tumor ([1]; 200 mg/kg ip ×10, 9 day): 695.7±29.6 mm^3
- T/C ([1]; 200 mg/kg ip ×10, 9 day): 42.4*** %
- Volume of tumor ([1]; 200 mg/kg ip ×10, 10 day): 759.7±21.1 mm^3
- T/C ([1]; 200 mg/kg ip ×10, 10 day): 41.9** %
- Volume of tumor ([1]; 200 mg/kg ip ×10, 11 day): 816.7±16.7 mm^3
- T/C ([1]; 200 mg/kg ip ×10, 11 day): 39.3** %
- Volume of tumor ([1]; 200 mg/kg ip ×10, 13 day): 1070.0±41.0 mm^3
- T/C ([1]; 200 mg/kg ip ×10, 13 day): 39.9*** %
- Volume of tumor ([1]; 200 mg/kg ip ×10, 16 day): 1110.0±21.0 mm^3
- T/C ([1]; 200 mg/kg ip ×10, 16 day): 34.5*** %
- Volume of tumor ([1]; 200 mg/kg ip ×10, 18 day): 1446.0±75.0 mm^3
- T/C ([1]; 200 mg/kg ip ×10, 18 day): 33.9*** %
- Volume of tumor ([1]; 200 mg/kg ip ×10, 19 day): 1405.0±159.8 mm^3
- T/C ([1]; 200 mg/kg ip ×10, 19 day): 29.9*** %
- Volume of tumor ([1]; 200 mg/kg ip ×10, 22 day): 1583.3±145.2 mm^3
- T/C ([1]; 200 mg/kg ip ×10, 22 day): 30.9*** %
- Volume of tumor ([1]; 200 mg/kg ip ×10, 25 day): 1708.0±243.2 mm^3
- T/C ([1]; 200 mg/kg ip ×10, 25 day): 29.2*** %
- Volume of tumor ([1]; 200 mg/kg ip ×10, 30 day): 2033.7±430.9 mm^3
- T/C ([1]; 200 mg/kg ip ×10, 30 day): 27.2*** %

Reference: patent EP0412158A1, “ONCOSTATIC DRUG” (priority 1987, dated 1988)
